Measurements from patent US4359468A, “Antiallergic N-[4-(indolyl)-piperidino-alkyl]-benzimidazolones” (Boehringer Ingelheim Ltd., priority 1981, dated 1982).

Columns and labels:
[1] = tested on: mast cells; test: Inhibition of Peritoneal Mast Cell Degranulation (MCD) in Rats Passively Sensitized with OA Antiserum or Induced by Compound 48/80; assay type: in vivo, rat; conditions: male CD rats, OA antiserum or Compound 48/80, i.v., i.p. or p.o., route not given
Protocol: Inhibition of Peritoneal Mast Cell Degranulation (MCD) in Rats Passively Sensitized with OA Antiserum or Induced by Compound 48/80
This test was adapted from that described by Mota, I. and Osler, A. G. "Mast Cell Degranulation,"
Male CD rats (150-160 gm) were divided into 5 groups as follows:
Group I: Nonspecific MCD control (3 rats)
Group II: Positive MCD control (5 rats)
Groups III, IV, V: Positive MCD following test compound (5 rats each)
Group I was injected intraperitoneally with 3 ml of normal rat serum. Groups II through V were intraperitoneally administered 3 ml of an antiserum predetermined to produce a 60-80 percent greater degranulation than normal rat serum. Eighteen to 24 hours later, test compound was administered (i.e., i.v. immediately, i.p. 5 minutes, or p.o. 20 minutes) before i.p. antigen challenge with 0.5 mg/kg of 2×crystalline ovalbumin in a concentration of 0.005 percent saline. Fifteen minutes after challenge, the rats were killed by asphyxiation with CO2. […]
Microscopic slides of the mesentery were prepared and analyzed by a modification of the method by Fugner, A. "An Improved Method for the Study of Reaginmediated Mast Cell Degranulation in Rats," Experientia, 29: 708, 1973, […]
The results were calculated and expressed as percent of inhibition of degranulation as follows: [formula]

[2] = tested on: passive cutaneous anaphylaxis skin reaction in rats (anti-OA reaginic serum, ovalbumin challenge); test: Rat Passive Cutaneous Anaphylaxis (PCA) Test; assay type: in vivo; conditions: male CD rats, 50 percent reduction in area, i.v. or oral, route not given
Protocol: Rat Passive Cutaneous Anaphylaxis (PCA) Test
The test used was essentially that described by El-Azab, J. and Stewart, P. B., "Pharmacological Profile of a New Anti-Allergic Compound PRD-92-EA." Int. Archs. Allergy Appl. Immunol. 55: 350-361, 1977;
A dilution of anti-OA reaginic serum was used to give reproducible skin reactions with diameters between 10-15 mm in unsensitized rats. This anti-serum dilution was injected in a volume of 0.1 ml intradermally on each side of the shaved backs of male CD rats (150-160 gm) before antigen challenge. Test compounds which were evaluated by the intravenous (i.v.) route were dissolved in water, and mixed with 0.5 ml of a solution containing 5 mg ovalbumin and 2 percent Evans Blue and administered at a volume of 1 ml/kg. […]
Thirty minutes after antigenic challenge, i.e. for either intravenous or oral administration, the rats were killed by CO2 asphyxiation. A midline incision was made along the spine and the skin was reflected and the diameter of the blued areas were measured in millimeters. The mean area in square millimeters was determined for each spot and the mean circular area of that test group was calculated. The mean area in square millimeters of an untreated control group was considered as a 100 percent response, and the results of the test compound groups were expressed as a percent change from the control values. […]

[3] = tested on: histamine-induced blueing in rat skin; test: In Vivo Inhibition of Histamine-Induced Blueing in Rat Skin; conditions: po, male CD rats, 50 percent reduction in blue-spotted area, p.o., 3 μg histamine intradermal, read-out: ED50 Antihist.
Protocol: In Vivo Inhibition of Histamine-Induced Blueing in Rat Skin
Male CD rats (150-160 gm) were divided into two groups. The hair was removed from an area of the back with an electric clipper. An untreated control group received 10 ml/kg, p.o. of normal saline in 1 percent acacia. Experimental groups received test compound suspended in 1 percent acacia at a volume of 10 ml/kg, p.o. Two percent Evans Blue dye in normal saline in a volume of 0.5 ml was administered intravenously to all animals. Twenty minutes following administration of the test compound or vehicle, 3 μg of histamine diphosphate in 0.1 ml of normal saline was injected intradermally in two sites of the shaved area on the backs of the rats. Fifteen minutes following histamine injection, all rats were killed by CO2 asphyxiation.
An incision was made along the spine and the skin cleanly separated. The dorsal skin was reflected and the diameters of the blue-spotted wheals were measured. The area in square millimeters was determined for each resulting blue spot and the mean area for the control and test groups were calculated. The mean area for the control group was considered as a 100 percent response. Test group results were expressed as a percentage change from control. An ED50 (i.e., defined as a 50 percent reduction in blue-spotted area) was determined by linear regression analysis.

SMILES	ED50 MCD [1]	ED50 [2] [mg/kg]	ED50 [3] [mg/kg]	ED50 ([1]; Rattus norvegicus, Mast cell) [mg/kg]
O=c1[nH]c2ccccc2n1CCCN1CCN(C(c2ccccc2)c2ccccc2)CC1 [Oxatomide]	neg.	8.3	8.1	–
O=c1[nH]c2ccccc2n1CCCN1CCC(c2c[nH]c3ccccc23)CC1 [Example 4, N-{3-[4-(3-indolyl)-piperidino]-propyl}-benzimidazolone]	–	1.6	8.7	3 to 6.4
